Values of other authors as cited in article PMC2970821 (Clinical Proteomics, 2010).
Ends that are not written are not given here.

Settings: apparently generating ITIH4-25, ref [26]

## RPGVLSSRQLGLPGPPDVPDHAAYHPF [ITIH4-27]
  Susceptibility to degradation of the synthetic peptide in plasma and serum: highest susceptibility to degradation
